This is an account of results in patent US20090239841A1, “Diaryl Ureas as CB1 Antagonists” (priority 2004, published 2009).

What is called IC50 is the midpoint of a concentration-inhibition curve.

A value given as a limit tells only on which side of the number the result lay.

The assay deals with T1, hCB1 (Homo sapiens, UniProt P21554).
T1 construct: made in house; host or cells: Sf9 insect cells (baculovirus), P2 membranes
T1 sequence (P21554 whole entry): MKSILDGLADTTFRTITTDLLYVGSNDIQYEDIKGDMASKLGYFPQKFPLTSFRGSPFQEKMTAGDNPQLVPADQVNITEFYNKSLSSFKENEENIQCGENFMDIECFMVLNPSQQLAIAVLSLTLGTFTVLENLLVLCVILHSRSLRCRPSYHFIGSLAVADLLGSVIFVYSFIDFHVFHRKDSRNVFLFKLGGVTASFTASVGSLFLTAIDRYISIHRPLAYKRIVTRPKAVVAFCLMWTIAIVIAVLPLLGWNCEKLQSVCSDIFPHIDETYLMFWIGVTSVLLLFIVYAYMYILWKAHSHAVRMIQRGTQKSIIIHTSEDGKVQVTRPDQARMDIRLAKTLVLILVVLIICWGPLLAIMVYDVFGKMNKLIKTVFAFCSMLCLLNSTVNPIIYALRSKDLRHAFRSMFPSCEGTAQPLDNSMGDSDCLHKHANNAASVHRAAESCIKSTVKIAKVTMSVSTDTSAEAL
As to the kind of experiment: Agonist-induced GTP binding (GTPγ35S) assay at CB1, Example 8. It is filed as biochemical. Particulars: IC50 at CB1, determined as described in Example 8; read-out: IC50. A digest of the protocol: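 Antagonism read as inhibition of 1 nM CP55,940-stimulated GTPγ35S ([…]) binding, compounds at 10^−10 to 10^−5 M. Baculovirus-infected Sf9 membranes bearing hCB1 plus G-protein subunits, 60 min room-temperature incubation with 5 μM GDP. Filtration and scintillation counting; data as percent over basal.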
Consider `CCc1ccc(NC(=O)Nc2ccc(C(=O)OC(C)C)cc2)cc1` [Compound 502, isopropyl 4-({[(4-ethylphenyl)amino]carbonyl}amino)benzoate], for which the IC50 was < 2000 nM. As for `N#CCc1ccc(NC(=O)Nc2cccc(C#N)c2)cc1` [Compound 503, 1-[4-(cyanomethyl)phenyl]-3-(3-cyanophenyl)urea], the IC50 was < 2000 nM. For the compound `CC(=O)c1cccc(NC(=O)Nc2ccc(CC#N)cc2)c1` [Compound 504, 1-(3-acetylphenyl)-3-[4-(cyanomethyl)phenyl]urea], the IC50 was < 2000 nM. For `CC(=O)c1ccc(NC(=O)Nc2ccc(CC#N)cc2)cc1` [Compound 505, 1-(4-acetylphenyl)-3-[4-(cyanomethyl)phenyl]urea], the IC50 was < 2000 nM. For the compound `N#CCOc1ccc(NC(=O)Nc2ccc(C#N)cc2)cc1` [Compound 506, 1-[4-(cyanomethoxy)phenyl]-3-(4-cyanophenyl)urea], the IC50 was < 2000 nM. For `N#CCOc1ccc(NC(=O)Nc2cccc(C#N)c2)cc1` [Compound 507, 1-[4-(cyanomethoxy)phenyl]-3-(3-cyanophenyl)urea], the IC50 is < 2000 nM. As to `CC(=O)c1ccc(NC(=O)Nc2ccc(OCC#N)cc2)cc1` [Compound 508, 1-(4-acetylphenyl)-3-[4-(cyanomethoxy)phenyl]urea], the IC50 is < 2000 nM.

In the case of `CCC(=O)c1ccc(NC(=O)Nc2cccc(C#N)c2)cc1` [Compound 509, 1-(3-cyanophenyl)-3-(4-propionylphenyl)urea], the IC50 was < 2000 nM. With `COC(=O)c1ccc(NC(=O)Nc2ccc(C(C)=O)cc2)cc1` [Compound 510, methyl 4-({[(4-acetylphenyl)amino]carbonyl}amino)benzoate], the half-maximal inhibitory concentration (IC50) is < 2000 nM.

`CCOC(=O)c1ccc(NC(=O)Nc2cccc(C#N)c2)cc1` [Compound 511, ethyl 4-({[(3-cyanophenyl)amino]carbonyl}amino)benzoate]: the IC50 is < 2000 nM. Consider `CCOC(=O)c1ccc(NC(=O)Nc2cccc(C(C)=O)c2)cc1` [Compound 512, ethyl 4-({[(3-acetylphenyl)amino]carbonyl}amino)benzoate], for which the IC50 was < 2000 nM. On to `CC(=O)c1cccc(NC(=O)Nc2ccc(C(=O)OC(C)C)cc2)c1` [Compound 513, isopropyl 4-({[(3-acetylphenyl)amino]carbonyl}amino)benzoate], for which the IC50 is < 2000 nM.

For `CC(=O)c1ccc(NC(=O)Nc2ccc(C(=O)OC(C)C)cc2)cc1` [Compound 514, isopropyl 4-({[(4-acetylphenyl)amino]carbonyl}amino)benzoate], the concentration for half-maximal inhibition (IC50) was < 2000 nM. As to `CCc1ccc(NC(=O)Nc2ccccc2[N+](=O)[O-])cc1` [Compound 515, 1-(4-ethylphenyl)-3-(2-nitrophenyl)urea], the IC50 was < 2000 nM. The result for `CCc1ccc(NC(=O)Nc2ccc(OC(F)(F)F)cc2)cc1` [Compound 517, 1-(4-ethylphenyl)-3-[4-(trifluoromethoxy)phenyl]urea] reads < 2000 nM.

On to `CC(C)c1ccc(NC(=O)Nc2ccc(OC(F)F)cc2)cc1` [Compound 518, 1-[4-(difluoromethoxy)phenyl]-3-(4-isopropylphenyl)urea], for which the concentration for half-maximal inhibition (IC50) was < 2000 nM. `CCCc1ccc(NC(=O)Nc2ccc(OC(F)(F)F)cc2)cc1` [Compound 519, 1-(4-propylphenyl)-3-[4-(trifluoromethoxy)phenyl]urea]: the IC50 is < 2000 nM.

As for `O=C(Nc1ccc(OC(F)F)cc1)Nc1cccc(Br)c1` [Compound 520, 1-(3-bromophenyl)-3-[4-(difluoromethoxy)phenyl]urea], the IC50 was < 2000 nM. With `COc1cccc(NC(=O)Nc2ccc(C(C)C)cc2)c1` [Compound 521, 1-(4-isopropylphenyl)-3-(3-methoxyphenyl)urea], the IC50 was < 2000 nM. For `COc1ccc(NC(=O)Nc2ccc(C(C)C)cc2)cc1` [Compound 522, 1-(4-isopropylphenyl)-3-(4-methoxyphenyl)urea], the IC50 is < 2000 nM. The result for `CCCc1ccc(NC(=O)Nc2cccc(OC)c2)cc1` [Compound 524, 1-(3-methoxyphenyl)-3-(4-propylphenyl)urea] reads < 2000 nM. To `CCCc1ccc(NC(=O)Nc2ccc(OC)cc2)cc1` [Compound 525, 1-(4-methoxyphenyl)-3-(4-propylphenyl)urea] belongs < 2000 nM; to `CCCc1ccc(NC(=O)Nc2ccc(OCC)cc2)cc1` [Compound 526, 1-(4-ethoxyphenyl)-3-(4-propylphenyl)urea], < 2000 nM; to `CCc1ccc(NC(=O)Nc2cccc([N+](=O)[O-])c2)cc1` [Compound 527, 1-(4-ethylphenyl)-3-(3-nitrophenyl)urea], < 2000 nM. As to `CC(C)c1ccc(NC(=O)Nc2ccc([N+](=O)[O-])cc2)cc1` [Compound 528, 1-(4-isopropylphenyl)-3-(4-nitrophenyl)urea], the IC50 was < 2000 nM.

Regarding `CCCc1ccc(NC(=O)Nc2ccc([N+](=O)[O-])cc2)cc1` [Compound 529, 1-(4-nitrophenyl)-3-(4-propylphenyl)urea], the IC50 is < 2000 nM. To `COc1ccc(NC(=O)Nc2ccc(OC(F)F)cc2)cc1` [Compound 530, 1-[4-(difluoromethoxy)phenyl]-3-(4-methoxyphenyl)urea] belongs < 2000 nM. `CCOc1cccc(NC(=O)Nc2ccc(OC(F)(F)F)cc2)c1` [Compound 531, 1-(3-ethoxyphenyl)-3-[4-(trifluoromethoxy)phenyl]urea]: the IC50 is < 2000 nM. The result for `CCOc1ccc(NC(=O)Nc2ccc(OC(F)(F)F)cc2)cc1` [Compound 532, 1-(4-ethoxyphenyl)-3-[4-(trifluoromethoxy)phenyl]urea] reads < 2000 nM; that for `COCc1ccc(NC(=O)Nc2ccc(OC(F)F)cc2)cc1` [Compound 533, 1-[4-(difluoromethoxy)phenyl]-3-[4-(methoxymethyl)phenyl]urea], < 2000 nM; that for `CCCOc1ccc(NC(=O)Nc2ccccc2OC(F)F)cc1` [Compound 534, 1-[2-(difluoromethoxy)phenyl]-3-(4-propoxyphenyl)urea], < 2000 nM. On to `CCCOc1ccc(NC(=O)Nc2ccc(OC(F)(F)F)cc2)cc1` [Compound 535, 1-(4-propoxyphenyl)-3-[4-(trifluoromethoxy)phenyl]urea], for which the IC50 is < 2000 nM. The result for `CC(C)Oc1cccc(NC(=O)Nc2ccc(OC(F)(F)F)cc2)c1` [Compound 536, 1-(3-isopropoxyphenyl)-3-[4-(trifluoromethoxy)phenyl]urea] reads < 2000 nM. Consider `CC(C)Oc1ccc(NC(=O)Nc2ccccc2OC(F)F)cc1` [Compound 537, 1-[2-(difluoromethoxy)phenyl]-3-(4-isopropoxyphenyl)urea], for which the IC50 is < 2000 nM.

`CC(C)Oc1ccc(NC(=O)Nc2ccc(OC(F)(F)F)cc2)cc1` [Compound 538, 1-(4-isopropoxyphenyl)-3-[4-(trifluoromethoxy)phenyl]urea]: the half-inhibitory concentration (IC50) was < 2000 nM. For the compound `O=C(Nc1cccc(OC(F)F)c1)Nc1ccccc1OC(F)F` [Compound 539, 1-[2-(difluoromethoxy)phenyl]-3-[3-(difluoromethoxy)phenyl]urea], the IC50 was < 2000 nM. As for `O=C(Nc1ccc(OC(F)(F)F)cc1)Nc1cccc(OC(F)F)c1` [Compound 540, 1-[3-(difluoromethoxy)phenyl]-3-[4-(trifluoromethoxy)phenyl]urea], the IC50 was < 2000 nM. Take `O=C(Nc1cccc(OC(F)F)c1)Nc1ccccc1OC(F)(F)F` [Compound 541, 1-[3-(difluoromethoxy)phenyl]-3-[2-(trifluoromethoxy)phenyl]urea]: the IC50 was < 2000 nM. Take `CCOc1cccc(NC(=O)Nc2ccc(OC)cc2)c1` [Compound 542, 1-(3-ethoxyphenyl)-3-(4-methoxyphenyl)urea]: the IC50 was < 2000 nM.

With `CCOc1ccc(NC(=O)Nc2cccc(OCC)c2)cc1` [Compound 543, 1-(3-ethoxyphenyl)-3-(4-ethoxyphenyl)urea], the IC50 was < 2000 nM.

As for `COCc1ccc(NC(=O)Nc2cccc(OC)c2)cc1` [Compound 544, 1-[4-(methoxymethyl)phenyl]-3-(3-methoxyphenyl)urea], the 50% inhibitory concentration (IC50) was < 2000 nM. Turning to `COCc1ccc(NC(=O)Nc2ccc(OC)cc2)cc1` [Compound 545, 1-[4-(methoxymethyl)phenyl]-3-(4-methoxyphenyl)urea], the 50% inhibitory concentration (IC50) was < 2000 nM.

As for `CCCOc1ccc(NC(=O)Nc2cccc(OC)c2)cc1` [Compound 546, 1-(3-methoxyphenyl)-3-(4-propoxyphenyl)urea], the 50% inhibitory concentration (IC50) was < 2000 nM. For the compound `CCCOc1ccc(NC(=O)Nc2ccc(OC)cc2)cc1` [Compound 547, 1-(4-methoxyphenyl)-3-(4-propoxyphenyl)urea], the IC50 is < 2000 nM. Take `COc1cccc(NC(=O)Nc2cccc(OC(C)C)c2)c1` [Compound 548, 1-(3-isopropoxyphenyl)-3-(3-methoxyphenyl)urea]: the IC50 was < 2000 nM.

For the compound `COc1ccc(NC(=O)Nc2cccc(OC(C)C)c2)cc1` [Compound 549, 1-(3-isopropoxyphenyl)-3-(4-methoxyphenyl)urea], the IC50 is < 2000 nM.

In the case of `CCOc1ccc(NC(=O)Nc2cccc(OC(C)C)c2)cc1` [Compound 550, 1-(4-ethoxyphenyl)-3-(3-isopropoxyphenyl)urea], the IC50 is < 2000 nM. On to `COc1cccc(NC(=O)Nc2ccc(OC(C)C)cc2)c1` [Compound 551, 1-(4-isopropoxyphenyl)-3-(3-methoxyphenyl)urea], for which the IC50 is < 2000 nM.

Take `COc1ccc(NC(=O)Nc2ccc(OC(C)C)cc2)cc1` [Compound 552, 1-(4-isopropoxyphenyl)-3-(4-methoxyphenyl)urea]: the IC50 was < 2000 nM. Turning to `COc1cccc(NC(=O)Nc2cccc(OC(F)F)c2)c1` [Compound 553, 1-[3-(difluoromethoxy)phenyl]-3-(3-methoxyphenyl)urea], the IC50 was < 2000 nM. The result for `COc1ccc(NC(=O)Nc2cccc(OC(F)F)c2)cc1` [Compound 554, 1-[3-(difluoromethoxy)phenyl]-3-(4-methoxyphenyl)urea] reads < 2000 nM.
